The source of these data is patent publication US8476295B2, “Bridged bicyclic RHO kinase inhibitor compounds, composition and use” (Inspire, priority 2009, dated 2013).

pKi: −log10 of the molar value. Where two headings read alike, the source gives them in different places.

In general, pKi refers to the negative decadic logarithm of the Ki, by convention in mol/L.

Test [1] has as its target Rho kinase 1 (Homo sapiens (Human), UniProt Q13464). The test can be described thus: biochemical.
Test [2] addresses Rho kinase 2 (Homo sapiens (Human), UniProt O75116). In words: Rho Kinase Inhibition Assay (IMAP fluorescence polarization), Rho kinase 2. It is filed as biochemical. The following applies: isolated enzyme, 10 μM ATP, 60 minutes at room temperature.
[3] abbreviates: Rho kinase 1 Ki, isolated enzyme, 10 μM ATP, 60 minutes at room temperature.

Sequence of Rho kinase 2 (O75116 11-552): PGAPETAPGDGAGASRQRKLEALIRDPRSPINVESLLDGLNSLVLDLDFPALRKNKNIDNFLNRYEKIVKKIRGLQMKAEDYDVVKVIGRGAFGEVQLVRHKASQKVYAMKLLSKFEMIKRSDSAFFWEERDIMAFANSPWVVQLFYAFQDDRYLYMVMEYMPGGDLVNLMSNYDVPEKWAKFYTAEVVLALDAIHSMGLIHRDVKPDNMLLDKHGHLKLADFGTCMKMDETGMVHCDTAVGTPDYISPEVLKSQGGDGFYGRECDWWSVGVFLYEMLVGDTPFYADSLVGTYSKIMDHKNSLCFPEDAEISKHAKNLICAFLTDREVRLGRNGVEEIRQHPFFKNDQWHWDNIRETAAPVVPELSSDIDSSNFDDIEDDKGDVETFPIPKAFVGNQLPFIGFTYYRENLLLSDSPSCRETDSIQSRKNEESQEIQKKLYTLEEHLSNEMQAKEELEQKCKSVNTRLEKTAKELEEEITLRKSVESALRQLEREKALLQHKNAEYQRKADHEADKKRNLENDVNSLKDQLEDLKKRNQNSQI
Sequence of Rho kinase 1 (Q13464 17-535): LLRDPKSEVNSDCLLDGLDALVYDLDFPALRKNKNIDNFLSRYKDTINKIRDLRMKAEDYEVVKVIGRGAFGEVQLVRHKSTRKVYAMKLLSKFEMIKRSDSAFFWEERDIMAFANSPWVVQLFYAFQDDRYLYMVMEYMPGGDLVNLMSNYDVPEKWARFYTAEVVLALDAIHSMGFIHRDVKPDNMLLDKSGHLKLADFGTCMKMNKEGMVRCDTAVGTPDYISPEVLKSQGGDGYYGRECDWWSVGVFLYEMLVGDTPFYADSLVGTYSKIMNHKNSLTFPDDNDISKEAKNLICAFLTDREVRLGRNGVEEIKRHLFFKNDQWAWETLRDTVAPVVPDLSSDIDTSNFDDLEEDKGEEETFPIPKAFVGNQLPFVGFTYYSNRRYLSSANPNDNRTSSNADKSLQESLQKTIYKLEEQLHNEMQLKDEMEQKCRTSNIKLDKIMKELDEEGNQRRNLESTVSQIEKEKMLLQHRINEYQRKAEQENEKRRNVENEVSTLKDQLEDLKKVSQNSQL

`c1ccc(CN2C[C@@H]3CC[C@H]2[C@@H]3Nc2ccc3[nH]ncc3c2)cc1` (racemic) [Compound 3.1.01, N-((1SR,4SR,7RS)-2-benzyl-2-azabicyclo[2.2.1]heptan-7-yl)-1H-indazol-5-amine]: the pKi was 6.01 in test [1] and 6.33 in test [2] (read-out: Rho kinase 2 Ki).

With `c1ccc(CN2C3CCC2CC(Nc2ccc4[nH]ncc4c2)C3)cc1` (single isomer, unassigned) [Compound 1.1.01, N-((1RS,3rs,5SR)-8-benzyl-8-azabicyclo[3.2.1]octan-3-yl)-1H-indazol-5-amine], the results for the pKi in test [1] (setting [3]) and in test [2] (Rho kinase 2 Ki) were 7.14 and 7.54, respectively.

As to `c1ccc(CN2C3CCC2CC(Nc2ccc4[nH]ncc4c2)C3)cc1` (single isomer, unassigned) [Compound 2.1.01, N-((1RS,3sr,5SR)-8-benzyl-8-azabicyclo[3.2.1]octan-3-yl)-1H-indazol-5-amine], the pKi in test [1] (setting [3]) is 6.09; in test [2] (Rho kinase 2 Ki) it was 6.66.

As to `Cc1ccc(CN2C3CCC2CC(Nc2ccc4[nH]ncc4c2)C3)cc1` (stereo not drawn) [Compound 1.1.02, N-((1RS,3rs,5SR)-8-(4-methylbenzyl)-8-azabicyclo[3.2.1]octan-3-yl)-1H-indazol-5-amine], the pKi is 7.04 in test [1] (setting [3]) and 7.70 in test [2] (Rho kinase 2 Ki).

For the compound `OCCOc1cccc(CN2C3CCC2CC(Nc2ccc4[nH]ncc4c2)C3)c1` (stereo not drawn) [Compound 1.1.03, 2-(3-(((1RS,3rs,5SR)-3-((1H-indazol-5-yl)amino)-8-azabicyclo[3.2.1]octan-8-yl)methyl)phenoxy)ethanol], the pKi in test [2] (Rho kinase 2 Ki) is 7.68.

Regarding `Cc1ccc(CN2C3CCC2CC(Nc2ccc4[nH]ncc4c2)C3)cc1OCCO` (stereo not drawn) [Compound 1.1.04, 2-(5-(((1RS,3rs,5SR)-3-((1H-indazol-5-yl)amino)-8-azabicyclo[3.2.1]octan-8-yl)methyl)-2-methylphenoxy)ethanol], the pKi in test [1] (setting [3]) is 7.46; in test [2] (Rho kinase 2 Ki), 8.00.
